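Protocol summary: plate cells (96-well), add compound at 5 concentrations, incubate 48 h, interpolate endpoints linearly. GI50 = concentration required for 50% inhibition of growth. Definition used: TGI = concentration required for complete inhibition of growth.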

Among the test systems are COLO 205 colon; SF-295 CNS; OVCAR-8 ovarian; UACC-62 melanoma; HL-60(TB) leukemia; UACC-257 melanoma; IGROV1 ovarian; RXF 393 renal; M14 melanoma; LOX IMVI melanoma; SK-OV-3 ovarian; HOP-92 NSCLC; MALME-3M melanoma; HS 578T breast; T-47D breast; DU-145 prostate; MDA-MB-231 breast.
What all share (assay): DTP human tumour cell line panel, 48 h

As for `COc1ccc2c(c1)c(=O)c1ccccc1n2/C=C/C(=O)O`, the TGI is more than 100 µM with COLO 205 colon; more than 100 µM with SF-295 CNS; more than 100 µM in the experiment on OVCAR-8 ovarian; more than 100 µM with UACC-62 melanoma; more than 66.6 µM in the experiment on HL-60(TB) leukemia; more than 100 µM in the experiment with UACC-257 melanoma. For the same compound, the TGI in the experiment with IGROV1 ovarian was more than 100 µM; in the experiment on RXF 393 renal, more than 100 µM; with M14 melanoma it was more than 100 µM; in the experiment on LOX IMVI melanoma, more than 65.6 µM; in the experiment with SK-OV-3 ovarian, more than 100 µM; in the experiment with HOP-92 NSCLC it was more than 100 µM. Also, the TGI with MALME-3M melanoma was more than 100 µM.

With `Cc1ccc(S(=O)(=O)N2CC3OC(C)(C)OC3C2CO)cc1` (stereo unspecified), the TGI with HS 578T breast, in the experiment with COLO 205 colon, in the experiment on T-47D breast, in the experiment on SF-295 CNS, in the experiment on OVCAR-8 ovarian and in the experiment with UACC-257 melanoma was more than 100 µM in each case. For the same compound, the TGI in the experiment on IGROV1 ovarian, with RXF 393 renal, in the experiment on M14 melanoma, with DU-145 prostate, with MDA-MB-231 breast and in the experiment with SK-OV-3 ovarian was more than 100 µM throughout. Moreover, the TGI in the experiment with HOP-92 NSCLC and in the experiment with MALME-3M melanoma was more than 100 µM in each case.

Regarding `COc1cccc(-c2cc(=O)c3cc(OC)c(OC)cc3[nH]2)c1`, the TGI in the experiment on COLO 205 colon, with SF-295 CNS, in the experiment with OVCAR-8 ovarian, with UACC-62 melanoma, in the experiment on HL-60(TB) leukemia and with UACC-257 melanoma was more than 100 µM in each case. The TGI with IGROV1 ovarian, in the experiment on RXF 393 renal, in the experiment with M14 melanoma, in the experiment with LOX IMVI melanoma, with SK-OV-3 ovarian and in the experiment on MALME-3M melanoma was more than 100 µM throughout. Also, the GI50 in the experiment with SF-295 CNS was 40.3 µM; with RXF 393 renal it was 33.3 µM.

`O=C1CCCCC1CN1CCCC1` (stereo unspecified): the TGI in the experiment on COLO 205 colon, in the experiment with SF-295 CNS, in the experiment on OVCAR-8 ovarian, in the experiment with UACC-257 melanoma, with IGROV1 ovarian and in the experiment on M14 melanoma was more than 100 µM each time. In addition, the TGI in the experiment with LOX IMVI melanoma and in the experiment on SK-OV-3 ovarian was more than 100 µM in each case.

As to `O=C(O)/C=C/n1c2ccccc2c(=O)c2ccccc21`, the TGI in the experiment on COLO 205 colon, in the experiment on SF-295 CNS, with OVCAR-8 ovarian, in the experiment with UACC-62 melanoma, in the experiment with HL-60(TB) leukemia and in the experiment with UACC-257 melanoma was more than 100 µM throughout. For the same compound, the TGI in the experiment on IGROV1 ovarian, in the experiment with RXF 393 renal, with M14 melanoma, in the experiment with LOX IMVI melanoma and in the experiment on MALME-3M melanoma was more than 100 µM in each case.

Regarding `COc1ccc(N2C(=O)C3c4[nH]c5ccccc5c4C4CCCCCCCCCCC4C3C2=O)cc1` (stereo unspecified), the TGI in the experiment on COLO 205 colon was more than 40.5 µM; with SF-295 CNS, 39.4 µM; with OVCAR-8 ovarian it was 9.61 µM; in the experiment on UACC-62 melanoma it was more than 52.6 µM; in the experiment with HL-60(TB) leukemia it was 68.2 µM; in the experiment on UACC-257 melanoma it was more than 100 µM. Moreover, the TGI with IGROV1 ovarian is more than 48.7 µM; in the experiment with M14 melanoma, 27.1 µM; with LOX IMVI melanoma, more than 46.6 µM; in the experiment on SK-OV-3 ovarian it was more than 57.5 µM; in the experiment on HOP-92 NSCLC, 45.2 µM; in the experiment with MALME-3M melanoma, more than 47.2 µM.

In the case of `COc1ccc(N2C(=O)C3c4[nH]c5ccc(OC)cc5c4C4CCC(C(C)(C)C)CC4C3C2=O)cc1` (stereo unspecified), the TGI was more than 100 µM in the experiment on COLO 205 colon; 32.8 µM in the experiment with SF-295 CNS; more than 100 µM in the experiment with OVCAR-8 ovarian; more than 100 µM in the experiment on UACC-62 melanoma; more than 100 µM in the experiment on HL-60(TB) leukemia; more than 100 µM in the experiment with UACC-257 melanoma. In addition, the TGI in the experiment with IGROV1 ovarian was more than 100 µM; in the experiment with RXF 393 renal, 58.1 µM; in the experiment with M14 melanoma it was more than 100 µM; with LOX IMVI melanoma, more than 100 µM; in the experiment on SK-OV-3 ovarian, 80 µM; with HOP-92 NSCLC, 36.4 µM. For the same compound, the TGI in the experiment with MALME-3M melanoma was 58 µM.

In the case of `CC1=NN(c2cccc(Cl)c2)C2(SCC(=O)N2c2nc3ccccc3s2)/C1=C\c1ccc(Cl)cc1` (stereo unspecified), the TGI in the experiment with HS 578T breast was 73.6 µM; with T-47D breast, more than 100 µM; with SF-295 CNS, 42.7 µM; in the experiment on OVCAR-8 ovarian it was 40.7 µM; in the experiment on HL-60(TB) leukemia it was 24.3 µM; in the experiment with UACC-257 melanoma it was 63.9 µM. The TGI in the experiment on IGROV1 ovarian is 37.8 µM; with RXF 393 renal it was 38.4 µM; with M14 melanoma it was 43.5 µM; in the experiment on LOX IMVI melanoma, 45.2 µM; in the experiment on DU-145 prostate, 39.2 µM; in the experiment with MDA-MB-231 breast, 72 µM. The results for the TGI in the experiment on SK-OV-3 ovarian and in the experiment with HOP-92 NSCLC were 47.3 µM and 28.3 µM, respectively.

Turning to `O=c1cc(-c2ccccc2)[nH]c2cc(F)c(F)cc12`, the TGI is more than 28.9 µM in the experiment on HS 578T breast; 34.7 µM in the experiment with COLO 205 colon; more than 100 µM in the experiment on SF-295 CNS; more than 100 µM in the experiment with OVCAR-8 ovarian; more than 50.1 µM in the experiment with UACC-62 melanoma; 3.14 µM in the experiment on HL-60(TB) leukemia. Besides, the TGI in the experiment on UACC-257 melanoma was more than 100 µM; in the experiment with IGROV1 ovarian, more than 54.1 µM; in the experiment with RXF 393 renal, 0.616 µM; in the experiment on M14 melanoma, more than 100 µM; in the experiment on LOX IMVI melanoma, more than 100 µM; in the experiment with DU-145 prostate, 34.1 µM. Besides, the TGI with MDA-MB-231 breast was more than 77.2 µM; in the experiment on SK-OV-3 ovarian, more than 56.1 µM; in the experiment on HOP-92 NSCLC, more than 100 µM; in the experiment on MALME-3M melanoma it was more than 100 µM.

As for `CC(=O)OC1CCN(C(=O)c2ccccc2)CC1CC1(c2cc3ccccc3[nH]2)OCCO1` (stereo unspecified), the TGI in the experiment with COLO 205 colon is more than 100 µM; in the experiment on T-47D breast it was more than 100 µM; in the experiment with SF-295 CNS, more than 100 µM; in the experiment with OVCAR-8 ovarian, more than 100 µM; in the experiment with UACC-62 melanoma, more than 100 µM; with HL-60(TB) leukemia it was 53.6 µM. Also, the TGI in the experiment with UACC-257 melanoma, with IGROV1 ovarian, in the experiment on RXF 393 renal, with M14 melanoma, with LOX IMVI melanoma and with DU-145 prostate was more than 100 µM throughout. In addition, the TGI with MDA-MB-231 breast, with SK-OV-3 ovarian, in the experiment on HOP-92 NSCLC and in the experiment with MALME-3M melanoma was more than 100 µM in each case.

What is called TGI is the concentration giving total growth inhibition. As a reminder, the GI50 is the concentration that inhibits growth by half.

For the origin of these results see PubChem BioAssay (NCI).
